Assay results published in ChEMBL document CHEMBL3779789, “Tricyclic pyrazoles. Part 8. Synthesis, biological evaluation and modelling of tricyclic pyrazole carboxamides as potential CB2 receptor ligands with antagonist/inverse agonist properties” (Eur J Med Chem, 2016).
Activity calls are given as the source filed them. The calls are words filed in the database; no cut-off is given here.

Key:
Cannabinoid receptor 2 [1] = target: T1, Cannabinoid receptor 2 (Homo sapiens, UniProt P34972); experiment: Displacement of [3H]CP55940 from human CB2 receptor expressed in HEK293-EBNA cell membrane incubated for 90 mins by liquid scintillation counting method; assay type: cell membranes
T1 sequence (P34972 whole entry): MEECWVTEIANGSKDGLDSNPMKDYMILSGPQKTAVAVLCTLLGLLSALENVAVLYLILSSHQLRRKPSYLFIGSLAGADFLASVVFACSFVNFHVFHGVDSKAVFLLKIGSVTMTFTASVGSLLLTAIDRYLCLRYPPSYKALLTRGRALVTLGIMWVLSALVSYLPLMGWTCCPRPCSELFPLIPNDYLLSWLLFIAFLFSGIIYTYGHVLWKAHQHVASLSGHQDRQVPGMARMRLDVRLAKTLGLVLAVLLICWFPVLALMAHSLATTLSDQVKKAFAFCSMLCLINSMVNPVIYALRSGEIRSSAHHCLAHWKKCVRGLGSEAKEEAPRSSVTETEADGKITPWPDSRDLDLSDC

Cannabinoid receptor 2 [2] = target: T1, Cannabinoid receptor 2; experiment: Displacement of [3H]CP55940 from human CB2 receptor expressed in HEK293-EBNA cell membrane at 40 uM incubated for 90 mins by liquid scintillation counting method relative to control; assay type: cell membranes
Cannabinoid receptor 1 [3] = target: T2, Cannabinoid receptor 1 (Homo sapiens, UniProt P21554); experiment: Displacement of [3H]CP55940 from human CB1 receptor expressed in HEK293-EBNA cell membrane at 40 uM incubated for 90 mins by liquid scintillation counting method relative to control; assay type: cell membranes
T2 sequence (P21554 whole entry): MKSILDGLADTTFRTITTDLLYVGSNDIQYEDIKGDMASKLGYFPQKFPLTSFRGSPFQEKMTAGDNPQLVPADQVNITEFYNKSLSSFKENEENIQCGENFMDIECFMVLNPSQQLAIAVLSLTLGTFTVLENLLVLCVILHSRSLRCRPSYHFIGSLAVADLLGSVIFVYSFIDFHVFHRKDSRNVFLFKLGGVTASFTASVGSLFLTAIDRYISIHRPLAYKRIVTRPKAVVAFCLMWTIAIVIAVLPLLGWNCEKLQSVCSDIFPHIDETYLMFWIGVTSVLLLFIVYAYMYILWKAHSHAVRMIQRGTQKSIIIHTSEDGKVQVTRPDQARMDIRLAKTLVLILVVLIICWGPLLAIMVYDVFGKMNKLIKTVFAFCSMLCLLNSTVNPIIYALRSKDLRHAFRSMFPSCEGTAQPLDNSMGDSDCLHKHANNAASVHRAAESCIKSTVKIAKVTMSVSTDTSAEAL

Cannabinoid receptor 1 [4] = target: T2, Cannabinoid receptor 1; experiment: Displacement of [3H]CP55940 from human CB1 receptor expressed in HEK293-EBNA cell membrane incubated for 90 mins by liquid scintillation counting method; assay type: cell membranes
[5] = Selectivity ratio of Ki for human CB1 receptor expressed in HEK293-EBNA cell membrane to Ki for human CB2 receptor expressed in HEK293-EBNA cell membrane; assay type: cell-based
Cannabinoid receptor 2 [6] = target: T1, Cannabinoid receptor 2; experiment: Antagonist/inverse agonist activity at human CB2 receptors expressed in human Chem4 cell membrane incubated for 30 mins by [35S]GTPgammaS binding assay; assay type: functional, cell membranes
[7] = target: Cannabinoid receptor 2 (Mus musculus) (UniProt P47936); experiment: Antagonist activity at CB2 receptor in mouse BV2 cells assessed as reversal of WIN55,212-2-induced reduction of LPS-induced PGE2 production at 10 fold Ki concentration incubated for 16 hrs by ELISA; assay type: cell-based; conditions: BV-2
Chain of Cannabinoid receptor 2 (Mus musculus) (P47936 whole entry): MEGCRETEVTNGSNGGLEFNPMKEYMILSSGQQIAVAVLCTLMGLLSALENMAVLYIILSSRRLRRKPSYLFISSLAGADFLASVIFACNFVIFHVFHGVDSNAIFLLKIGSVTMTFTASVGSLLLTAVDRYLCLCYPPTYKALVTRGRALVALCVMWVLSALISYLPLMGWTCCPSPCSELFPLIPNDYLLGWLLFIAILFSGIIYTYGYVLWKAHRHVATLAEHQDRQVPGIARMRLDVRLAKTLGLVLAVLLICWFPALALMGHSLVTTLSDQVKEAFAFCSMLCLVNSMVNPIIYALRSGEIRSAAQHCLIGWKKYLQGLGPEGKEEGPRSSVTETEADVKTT

[8] = target: Cannabinoid receptor 2 (Mus musculus) (UniProt P47936); experiment: Antagonist/inverse agonist activity at CB2 receptor in mouse BV2 cells assessed as increase in LPS-induced PGE2 production at 10 fold Ki concentration incubated for 16 hrs by ELISA in presence of CB2 antagonist/inverse agonist SR144528; assay type: cell-based; conditions: BV-2
[9] = target: Cannabinoid receptor 2 (Mus musculus) (UniProt P47936); experiment: Antagonist/inverse agonist activity at CB2 receptor in mouse BV2 cells assessed as increase in LPS-induced PGE2 production at 10 fold Ki concentration incubated for 16 hrs by ELISA; assay type: cell-based; conditions: BV-2

SMILES | Ki (Cannabinoid receptor 2 [1]) [nM] | Activity (Cannabinoid receptor 2 [2]) [%] | Activity (Cannabinoid receptor 1 [3]) [%] | Ki (Cannabinoid receptor 1 [4]) [nM] | Ratio Ki [5] | IC50 (Cannabinoid receptor 2 [6]) [nM] | Activity [7] | Activity [8] | Activity [9]
CC1(C)C2CC[C@@](C)(C2)C1NC(=O)c1nn(-c2ccc(Cl)cc2Cl)c2c1Cc1cc(C3CCCCC3)ccc1-2 (stereo partly drawn) | > 10000 | > 70 | > 70 | > 10000 | – | – | – | – | –
O=C(c1nn(-c2ccc(Cl)cc2Cl)c2c1Cc1cc(C3CC3)ccc1-2)N1CCCCC1 | 414 | > 70 | > 70 | > 10000 | > 24.2 | – | – | – | –
O=C(NC12CC3CC(CC(C3)C1)C2)c1nn(-c2ccc(Cl)cc2Cl)c2c1Cc1cc(C3CC3)ccc1-2 | 4 | > 70 | > 70 | > 10000 | > 2230 | 50.7 | Active | inactive | inactive
O=C(NN1CCOCC1)c1nn(-c2ccc(Cl)cc2Cl)c2c1Cc1cc(C3CC3)ccc1-2 | 198 | > 70 | > 70 | 4030 | 20.4 | – | – | – | –
CC1(C)C2CC[C@@](C)(C2)C1NC(=O)c1nn(-c2ccc(Cl)cc2Cl)c2c1ccc1cc(C3CC3)ccc12 (stereo partly drawn) | > 40000 | > 70 | > 70 | > 40000 | – | – | – | – | –
O=C(NN1CCCCC1)c1nn(-c2ccc(Cl)cc2Cl)c2c1Cc1cc(C3CCCCC3)ccc1-2 | 509 | > 70 | > 70 | > 10000 | > 19.6 | – | – | – | –
O=C(NN1CCCC1)c1nn(-c2ccc(Cl)cc2Cl)c2c1ccc1cc(C3CC3)ccc12 | > 40000 | > 70 | > 70 | > 40000 | – | – | – | – | –
O=C(NN1CCCCC1)c1nn(-c2ccc(Cl)cc2Cl)c2c1ccc1cc(C3CC3)ccc12 | 825 | > 70 | > 70 | > 40000 | > 48.5 | – | – | – | –
CC1(C)[C@@H]2CC[C@]1(C)[C@H](NC(=O)c1nn(-c3ccc(Cl)cc3Cl)c3c1Cc1cc(C4CC4)ccc1-3)C2 | 38 | > 70 | > 70 | > 40000 | > 1060 | 26.9 | Active | Active | inactive
CC1(C)C2CC[C@@](C)(C2)C1NC(=O)c1nn(-c2ccc(Cl)cc2Cl)c2c1CCc1cc(C3CC3)ccc1-2 (stereo partly drawn) | 5520 | > 70 | > 70 | > 40000 | > 7.25 | – | – | – | –
O=C(NN1CCCCC1)c1nn(-c2ccc(Cl)cc2Cl)c2c1CCc1cc(C3CC3)ccc1-2 | 143 | > 70 | > 70 | > 40000 | > 280 | – | – | – | –
O=C(NN1CCCCC1)c1nn(-c2ccc(Cl)cc2Cl)c2c1Cc1cc(C3CC3)ccc1-2 | 69.4 | > 70 | > 70 | 1850 | 26.7 | 294 | – | – | –
CC1(C)C2CCC(CNC(=O)c3nn(-c4ccc(Cl)cc4Cl)c4c3CCc3cc(C5CC5)ccc3-4)C1C2 (stereo not drawn) | > 10000 | > 70 | > 70 | > 10000 | – | – | – | – | –
O=C(NN1CCCC1)c1nn(-c2ccc(Cl)cc2Cl)c2c1Cc1cc(C3CC3)ccc1-2 | 152 | > 70 | > 70 | 4210 | 27.7 | – | – | – | –
CC1(C)C2CC[C@@](C)(C2)C1NC(=O)c1nn(-c2ccc(Cl)cc2Cl)c2c1Cc1cc(C3CC3)ccc1-2 (stereo partly drawn) | 6 | > 70 | > 70 | > 40000 | > 6940 | 80.4 | Active | inactive | Active
O=C(NN1CCCC1)c1nn(-c2ccc(Cl)cc2Cl)c2c1Cc1cc(C3CCCCC3)ccc1-2 | 515 | > 70 | > 70 | > 10000 | > 19.4 | – | – | – | –
O=C(c1nn(-c2ccc(Cl)cc2Cl)c2c1ccc1cc(C3CC3)ccc12)N1CCCCC1 | > 40000 | > 70 | > 70 | > 40000 | – | – | – | – | –
